From ChEMBL document CHEMBL1130806, “Enhanced potency of perfluorinated thalidomide derivatives for inhibition of LPS-induced tumor necrosis factor-alpha production is associated with a change of mechanism of action” (Bioorg Med Chem Lett, 1998)

Columns and labels:
Format in all cases: functional, cell-based
[1] = tested on: THP-1; assay: Inhibition of LPS-induced Tumor necrosis factor-alpha production (TNF-alpha) in THP-1 cells; conditions: Homo sapiens
[2] = Compound was tested for the inhibition of production of IL-1 beta in human monocytes
[3] = Compound was tested for the inhibition of production of IL-6 in human monocytes

| IC50 [2] | IC50 [3] | Structure (SMILES) | IC50 [1] |
| --- | --- | --- | --- |
|  |  | C[C@]1(N2C(=O)c3c(F)c(F)c(F)c(F)c3C2=O)CCC(=O)NC1=O | 443 nM |
| 400 nM | 300 nM | COC(=O)CC(c1ccc(OC)c(OC)c1)N1C(=O)c2c(F)c(F)c(F)c(F)c2C1=O (racemic) | 249 nM |
|  |  | C[C@@]1(N2C(=O)c3c(F)c(F)c(F)c(F)c3C2=O)CCC(=O)NC1=O | 494 nM |
|  |  | COC(=O)C[C@@H](c1ccc(OC)c(OC)c1)N1C(=O)c2c(F)c(F)c(F)c(F)c2C1=O | 313 nM |
|  |  | CN1C(=O)c2c(F)c(F)c(F)c(F)c2C1=O | 413 nM |
|  |  | C[C@H](c1ccccc1)N1C(=O)c2c(F)c(F)c(F)c(F)c2C1=O | 434 nM |
|  |  | C[C@@H](c1ccccc1)N1C(=O)c2c(F)c(F)c(F)c(F)c2C1=O | 367 nM |
| 400 nM | 700 nM | O=C1CCC(N2C(=O)c3c(F)c(F)c(F)c(F)c3C2=O)C(=O)N1 (stereo unspecified) | 490 nM |
|  |  | O=C1c2c(F)c(F)c(F)c(F)c2C(=O)N1c1ccccc1 | 425 nM |
|  |  | CC(c1ccccc1)N1C(=O)c2c(F)c(F)c(F)c(F)c2C1=O (racemic) | 415 nM |
|  |  | CC1(N2C(=O)c3c(F)c(F)c(F)c(F)c3C2=O)CCC(=O)NC1=O (racemic) | 378 nM |
|  |  | COC(=O)C[C@H](c1ccc(OC)c(OC)c1)N1C(=O)c2c(F)c(F)c(F)c(F)c2C1=O | 250 nM |
